Results published in patent US20200009248A1, “TARGETING TGR5 TO TREAT DISEASE” (Mayo Foundation for Medical Education and Research, priority 2014, published 2020).
“Also recorded” adds a separate entry of the source.

Legend:
[1] = test system: control and cystic cholangiocytes; test: cAMP production (Bridge-It cAMP assay) in cholangiocytes treated with TGR5 agonists; type: cell-based, rat, human; conditions: 25 μM, 30 minutes; for cAMP production: ciliated cystic cholangiocytes (PCK rat, human ADPKD)
Protocol: Production of cAMP was detected using a Bridge-It cAMP designer cAMP assay (Mediomics, St. Lou is, MO) according to manufacturer's protocol. […] Forskolin (10^−6M for 15 min) served as a control.

[2] = test system: Gαi and Gαs proteins, TGR5; conditions: PCK rats in vivo, immunofluorescence
From the text: (§1) Control PCK rats (n=8) received equal doses of DMSO. Drug concentrations were adjusted to the animal weight weekly. After 6 weeks of treatment, rats were sacrificed and body and organ weights assessed. […] Hepatic and renal cystic and fibrotic areas were expressed as a percentage of total hepatic or renal parenchyma, respectively.

ADPKD cholangiocytes = test: Three-dimensional culture of cystic cholangiocytes, cyst growth; type: cell-based, human; conditions: ADPKD cholangiocytes with TGR5 depleted by shRNA
From the text: Control and cystic rat cholangiocytes (derived from wild type and PCK rats, respectively), and control and cystic human cholangiocytes (derived from healthy humans and ADPKD patients, respectively) were used. Cells were isolated and maintained as described elsewhere (Masyuk et al., Hepatol 2013, 58:409-421). […] C1 and C2 were synthesized in the Sanford-Burnham Medical Research Institute at >95% purity by HPLC following a procedure outlined elsewhere (Piotrowski et al., ACS Med Chem Lett 2013, 4:63-68; and Evans et al., J Med Chem 2009, 52:7962-7965). PCK and ADPKD cholangiocytes were stably transfected with TGR5 shRNAs or control shRNAs (Santa Cruz Biotechnology, Santa Cruz, Calif.). Rodents were maintained on a standard diet and water ad lib. […]
Cultured cholangiocytes and cystic bile ducts freshly isolated by microdissection from PCK rats were grown in three-dimensional matrices as described elsewhere (Masyuk et al., Am J Pathol 2014, 184:110-121; and Masyuk et al., Am J Pathol 2004, 165:1719-1730) and treated with TLCA and OA (both, […]) daily. […] The circumferential area of each cyst was measured using ImageJ software (National Institutes of Health, Bethesda, Md.) as described elsewhere (Masyuk et al., Am J Pathol 2014, 184:110-121). Data were expressed as percent change at day 3 compared to day 1.

Gαi and Gαs proteins = test: Western blot of Gαi and Gαs proteins in control and cystic cholangiocytes with or without OA; type: cell-based
Protocol: Western blotting. Briefly, proteins were separated by 4-15% SDSPAGE, transferred to nitrocellulose membranes (Bio-Rad, Hercules, Calif.), and incubated overnight at 4° C. with antibodies against TGR5 (Santa Cruz Biotechnology), Gas (Abcam, Cambridge, Mass.), and Gαi (Cell Signaling Technology, Danvers, Mass.). Actin antibody was used to assure equal protein loading. Membranes were washed and incubated for 1 hour at room temperature with the corresponding horseradish peroxidase-conjugated (Invitrogen) or IRDYE® 680 or 800 (Odyssey) secondary antibodies. Bands were visualized with the ECL Plus Western Blotting Detection kit (BD Biosciences, San Jose, Calif.) or Odyssey Li-Cor Scanner (Li-Cor, Lincoln, Nebr.).

PCK rats = test: Hepato-renal cystogenesis in PCK rats treated with OA for 6 weeks; type: in vivo; conditions: 25 mg/kg bw intraperitoneally daily; for hepato-renal cystogenesis: 25 mg/kg
From the text: as §1

[3] = test system: cystic bile ducts from PCK rats; test: Three-dimensional culture of cystic bile ducts, cyst growth; type: cell-based, rat; conditions: 25 μm daily, day 3 vs day 1, compared to untreated
Protocol: Cultured cholangiocytes and cystic bile ducts freshly isolated by microdissection from PCK rats were grown in three-dimensional matrices as described elsewhere (Masyuk et al., Am J Pathol 2014, 184:110-121; and Masyuk et al., Am J Pathol 2004, 165:1719-1730) and treated with TLCA and OA (both, […]) daily. Images were taken at days 1 (i.e., 24 hours after seeding) and 3. The circumferential area of each cyst was measured using ImageJ software (National Institutes of Health, Bethesda, Md.) as described elsewhere (Masyuk et al., Am J Pathol 2014, 184:110-121). Data were expressed as percent change at day 3 compared to day 1.

[4] = ciliated control cholangiocytes (rat, human)
[5] = non-ciliated control and cystic cholangiocytes (rat, human)

| Compound | cAMP levels [1, 4] | cAMP production [1] | cAMP levels [1, 5] | expression of Gα proteins [2] | growth of cystic structures in 3-D culture after TGR5 depletion (ADPKD cholangiocytes) | expression of Gαi and Gαs proteins (Gαi and Gαs proteins) | mortality or toxicity (e.g., hair or weight loss) (PCK rats) | tolerability (PCK rats) | increase of hepatic cystic areas (PCK rats; compared to control PCK rats) | increase of hepatic fibrotic areas (PCK rats; compared to control PCK rats) | increase of kidney weights (PCK rats; compared to control PCK rats) | increase of liver weights (PCK rats; compared to control PCK rats) | increase of renal cystic areas (PCK rats; compared to control PCK rats) | increase of renal fibrotic areas (PCK rats; compared to control PCK rats) | hepato-renal cystogenesis (PCK rats; listed as Oleanolic Acid) | hepato-renal cystogenesis (PCK rats; listed as oleanolic acid) | growth of cystic structures (cyst expansion) in 3-D culture [3] |
| --- | --- | --- | --- | --- | --- | --- | --- | --- | --- | --- | --- | --- | --- | --- | --- | --- | --- |
| CCNc1nc2c(c(C(N)=O)n1)CN(C(=O)CCc1ccc(OC(F)(F)F)cc1)CC2 [C1, 2-(ethylamino)-6-(3-(4-(trifluoromethoxy)phenyl)propanoyl)-5,6,7,8-tetrahydropyrido[4,3-d]pyrimidine-4-carbox-amide] | decreased cAMP levels | increasing cAMP production | elevated cAMP |  |  |  |  |  |  |  |  |  |  |  |  |  |  |
| Cc1onc(-c2ccccc2Cl)c1C(=O)N(C)c1ccc(Cl)cc1 [C2, 3-(2-chlorophenyl)-N-(4-chlorophenyl)-N,5-dimethylisoxazole-4-carboxamide] | decreased cAMP levels | increasing cAMP production | elevated cAMP |  |  |  |  |  |  |  |  |  |  |  |  |  |  |
| CC1(C)CC[C@]2(C(=O)O)CC[C@]3(C)C(=CC[C@@H]4[C@@]5(C)CC[C@H](O)C(C)(C)[C@@H]5CC[C@]43C)[C@@H]2C1 [OA, oleanolic acid] | decreased cAMP levels | increasing cAMP production | elevated cAMP | does not affect | abolished the effects | no effects; also recorded: did not affect | no mortality or toxicity | well tolerated | 31% | 20% | 11% | 12% | 19% | 30% | Increases | increases | accelerated cyst expansion |
